Assay results as given in the NIST ThermoML archive (doi:10.1021/je8002817).
Numbers after ± are expanded uncertainties.

Settings: Liquid

CCCC[N+](C)(C)C.O=S(=O)([N-]S(=O)(=O)C(F)(F)F)C(F)(F)F [butyltrimethylammonium bis(trifluoromethylsulfonyl)imide]
Settings | mass density [kg/m3]
293.48 K, 101.33 kPa | 1396.3 ± 1.6
293.48 K, 1000 kPa | 1396.8 ± 1.2
293.49 K, 5000 kPa | 1398.8 ± 1.3
293.5 K, 40000 kPa | 1416.7 ± 2.7
293.51 K, 10000 kPa | 1401.4 ± 1.5
293.51 K, 20000 kPa | 1406.6 ± 1.9
293.51 K, 30000 kPa | 1411.7 ± 2.3
302.84 K, 101.33 kPa | 1387.9 ± 1.5
312.82 K, 101.33 kPa | 1379 ± 1.5
322.29 K, 5000 kPa | 1373.5 ± 1.3
322.31 K, 20000 kPa | 1382.2 ± 1.8
322.32 K, 10000 kPa | 1376.4 ± 1.5
322.32 K, 40000 kPa | 1393.2 ± 2.6
322.33 K, 101.33 kPa | 1370.5 ± 1.5
322.33 K, 30000 kPa | 1387.7 ± 2.2
322.34 K, 1000 kPa | 1371.1 ± 1.2
332.75 K, 101.33 kPa | 1361.3 ± 1.5
342.67 K, 101.33 kPa | 1352.5 ± 1.5
352.27 K, 20000 kPa | 1356.9 ± 1.8
352.29 K, 10000 kPa | 1350.5 ± 1.4
352.3 K, 5000 kPa | 1347.3 ± 1.3
352.32 K, 40000 kPa | 1369.1 ± 2.5
352.34 K, 30000 kPa | 1363 ± 2.1
352.36 K, 101.33 kPa | 1343.9 ± 1.4
352.36 K, 1000 kPa | 1344.6 ± 1.2
373.28 K, 5000 kPa | 1328.9 ± 1.2
373.3 K, 10000 kPa | 1332.4 ± 1.4
373.3 K, 20000 kPa | 1339.2 ± 1.7
373.31 K, 101.33 kPa | 1325.5 ± 1.4
373.31 K, 30000 kPa | 1345.8 ± 2
373.33 K, 1000 kPa | 1326.2 ± 1.1
373.35 K, 40000 kPa | 1352.3 ± 2.4
391.25 K, 30000 kPa | 1331.2 ± 2
391.26 K, 10000 kPa | 1316.9 ± 1.4
391.27 K, 1000 kPa | 1310.5 ± 1.1
391.28 K, 101.33 kPa | 1309.7 ± 1.4
391.28 K, 20000 kPa | 1324.2 ± 1.7
391.31 K, 5000 kPa | 1313.1 ± 1.2
391.31 K, 40000 kPa | 1338.1 ± 2.3
414.89 K, 30000 kPa | 1312.1 ± 1.9
414.92 K, 40000 kPa | 1319.5 ± 2.2
414.93 K, 101.33 kPa | 1288.6 ± 1.3
414.94 K, 5000 kPa | 1292.5 ± 1.2
414.94 K, 10000 kPa | 1296.6 ± 1.3
414.94 K, 20000 kPa | 1304.5 ± 1.6
414.95 K, 1000 kPa | 1289.4 ± 1.1

CCCC[N+]1(C)CCCC1.O=S(=O)([N-]S(=O)(=O)C(F)(F)F)C(F)(F)F
Settings | mass density [kg/m3]
293.49 K, 101.33 kPa | 1398 ± 1.6
293.5 K, 10000 kPa | 1404 ± 1.5
293.5 K, 20000 kPa | 1409.8 ± 1.9
293.5 K, 30000 kPa | 1415.5 ± 2.3
293.5 K, 40000 kPa | 1421 ± 2.8
293.51 K, 1000 kPa | 1398.6 ± 1.2
293.51 K, 5000 kPa | 1401 ± 1.4
302.66 K, 101.33 kPa | 1390.1 ± 1.5
312.62 K, 101.33 kPa | 1381.5 ± 1.5
322.31 K, 10000 kPa | 1379.7 ± 1.5
322.31 K, 20000 kPa | 1386 ± 1.9
322.31 K, 40000 kPa | 1398.2 ± 2.6
322.32 K, 5000 kPa | 1376.4 ± 1.3
322.32 K, 30000 kPa | 1392.2 ± 2.2
322.33 K, 1000 kPa | 1373.8 ± 1.2
322.35 K, 101.33 kPa | 1373.2 ± 1.5
332.63 K, 101.33 kPa | 1364.3 ± 1.5
342.54 K, 101.33 kPa | 1355.9 ± 1.5
352.31 K, 20000 kPa | 1361.5 ± 1.8
352.31 K, 40000 kPa | 1374.5 ± 2.5
352.32 K, 101.33 kPa | 1347.5 ± 1.4
352.32 K, 10000 kPa | 1354.5 ± 1.4
352.33 K, 5000 kPa | 1351 ± 1.3
352.33 K, 30000 kPa | 1368.1 ± 2.1
352.35 K, 1000 kPa | 1348.1 ± 1.2
373.31 K, 5000 kPa | 1333.2 ± 1.3
373.31 K, 30000 kPa | 1351.3 ± 2.1
373.32 K, 1000 kPa | 1330.1 ± 1.2
373.33 K, 101.33 kPa | 1329.5 ± 1.4
373.33 K, 10000 kPa | 1337 ± 1.4
373.34 K, 20000 kPa | 1344.2 ± 1.7
373.34 K, 40000 kPa | 1358 ± 2.4
391.26 K, 1000 kPa | 1314.9 ± 1.2
391.29 K, 10000 kPa | 1322 ± 1.4
391.29 K, 30000 kPa | 1337 ± 2
391.3 K, 101.33 kPa | 1314.1 ± 1.4
391.3 K, 5000 kPa | 1318.1 ± 1.3
391.32 K, 20000 kPa | 1329.6 ± 1.7
391.32 K, 40000 kPa | 1344 ± 2.4
414.93 K, 101.33 kPa | 1293.9 ± 1.3
414.93 K, 5000 kPa | 1298.1 ± 1.2
414.93 K, 10000 kPa | 1302.4 ± 1.4
414.93 K, 20000 kPa | 1310.5 ± 1.6
414.93 K, 30000 kPa | 1318.1 ± 1.9
414.93 K, 40000 kPa | 1325.6 ± 2.3
414.94 K, 1000 kPa | 1294.7 ± 1.2
